Measurements as given in patent US8835458B2 (Hanmi Science Co., Ltd, priority 2010, dated 2014).
Where a name gives a salt, the structure may show the parent alone. Read-outs that look alike come from different tables or passages of the source.

Key:
[1] = Toxicity to normal cells (SRB); type: cell-based, mouse; conditions: mouse, Balb/c3t3 fibroblasts (normal cell line), read-out: BalB/C (GI50)
Procedure: MDA-MB-231 breast cancer cell lines (ATCC #HTB-26) and BxPC-3 pancreas cancer cell lines (ATCC #CRL 1687), which have been reported to express XIAP, were obtained from ATCC (American type culture collection; Rockville, Md.). MDA-MB-231 cell lines were incubated in L-15 medium supplemented with 10% FBS and 1% penicillin/streptomycin (Gibco BRL) at a T-75 cm^2 growth flask. In addition, BxPC-3 cell lines were incubated in RPMI medium supplemented with 10% FBS and 1% penicillin/streptomycin. For experiments of toxicity to normal cells, fibroblasts Hs27 (ATCC #CRL 1634) and Balb/c3t3 (ATCC #CCL 163) were used. The various cell lines were transferred into 96-well plates at a density of 3,000˜5,000 cells/100 μL, and cultured for 24 hours under conditions of 37° C., 5% CO2, 95% air, and 100% relative humidity (MDA-MB-231 cells were cultured under atmospheric conditions). The cells were treated with 10 μM˜0.1 nM of test compounds, and MDA-MB-231, BxPC-3, and normal cell lines were cultured for 120, 96, and 72 hours, respectively.
Cell viabilities of MDA-MB-231 cell lines were measured at an absorbance of 490 nm using CellTiter 96™ AQueous One Solution Cell proliferation Assay (MTS, Promega), and cell viabilities of BxPC-3 and normal cell lines were measured by fixing cells with 10% TCA (trichloroacetic acid), staining with SRB (sulforhodamine B), and measuring at 540 nm. From the values, GI50 values in which test compounds reduce the growth of cancer cells by 50% were calculated. The growth rates of cancer cells were calculated from following Equation 1 or 2. [(Ti−Tz)/(C−Tz)]×100 (for Ti>=Tz) [Equation 1] [(Ti−Tz)/Tz]×100 (for Ti<Tz) [Equation 2] In Equations 1 and 2, Tz refers to a density of untreated cells, which is an absorbance in 0% cell growth groups. C refers to a density of cells cultured by adding only medium, and Ti refers to a density of cells treated with test compounds.
GI50 value is the concentration of a test compound when the value of Equation 1 is 50, which indicates the concentration of test compound required to inhibit the cancer cells by 50%. On each measurement, test compounds were compared with a control.
The activity value of each compound (GI50 value) was shown in Table 5, and an IAP antagonist was used as a control.
In the activity measurement on MDA-MB-231 breast cancer cell lines, the values were represented as “***” for 100 nM or less, “**” for over 100 nM to below 1,000 nM, and “*” for 1,000 nM or more. In the measurement on normal cell lines, Balb/C and Hs27, the values were represented as “+++” for 10,000 nM or more, “++” for over 5,000 nM to below 10,000 nM, and “+” for 5,000 nM or less.

[2] = Toxicity to normal cells (SRB); type: cell-based, human; conditions: human, Hs27 fibroblasts (normal cell line)
Summary of the method: (§1)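 Cells seeded at 3,000˜5,000 cells/100 μL, grown 24 h at 37° C (MDA-MB-231 under atmospheric conditions), then exposed to 10 μM˜0.1 nM compound. MDA-MB-231 cultured 120 h, read by MTS at 490 nm; fibroblasts cultured 72 h, TCA-fixed, SRB-stained, read at 540 nm. GI50 from growth relative to untreated and medium-only cells.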

[3] = test system: MDA-MB-231 breast cancer cell lines; assay: Evaluation of inhibition on cell growth (MTS); type: cell-based; conditions: Homo sapiens, MDA-MB-231, 120 hours
Summary of the method: as §1

GI50 [3] [µM] | Structure (SMILES) | GI50 at 72 h [1] [µM] | GI50 at 72 h [2] [µM]
≤ 0.1 | CN[C@@H](C)C(=O)N[C@H](C(=O)N1CCC[C@H]1C(=O)Nc1cc2c(Nc3ccc(N4CCCCC4)cc3)ncnc2cc1OC)C(C)(C)C [Example 66, (S)-1-((S)-3,3-dimethyl-2-((S)-2-(methylamino)propanamido)butanoyl)-N-(7-methoxy-4-(4-(piperidin-1-yl)phenylamino)quinazolin-6-yl)pyrrolidine-2-carboxamide dihydrochloride] | > 10 | > 10
≤ 0.1 | CN[C@@H](C)C(=O)N[C@H](C(=O)N1CCC[C@H]1C(=O)Nc1cc2c(Nc3c(Cl)ccc4c3OCO4)ncnc2cc1OC)C(C)(C)C [Example 51, (S)—N-(4-(5-chlorobenzo[d][1,3]dioxol-4-ylamino)-7-methoxyquinazolin-6-yl)-1-((S)-3,3-dimethyl-2-((S)-2-(methylamino)propanamido)butanoyl)pyrrolidine-2-carboxamide hydrochloride] | > 10 | > 10
≤ 0.1 | CN[C@@H](C)C(=O)N[C@H](C(=O)N1CCC[C@H]1C(=O)Nc1cc2c(Nc3ccc(Cl)cc3)ncnc2cc1OC)C(C)(C)C [Example 56, (S)—N-(4-(4-chlorophenylamino)-7-methoxyquinazolin-6-yl)-1-((S)-3,3-dimethyl-2-((S)-2-(methylamino)propanamido)butanoyl)pyrrolidine-2-carboxamide] | > 10 | > 10

Second part, the compound before the results:

Structure (SMILES) | GI50 [3] [µM] | GI50 at 72 h [1] [µM] | GI50 at 72 h [2] [µM]
CN[C@@H](C)C(=O)N[C@H](C(=O)N1CCC[C@H]1C(=O)Nc1cc2c(Nc3ccccc3Br)ncnc2cc1OC)C(C)(C)C [Example 22, (S)—N-(4-(2-bromophenylamino)-7-methoxyquinazolin-6-yl)-1-((S)-3,3-dimethyl-2-((S)-2-(methylamino)propanamido)butanoyl)pyrrolidine-2-carboxamide hydrochloride] | ≤ 0.1 | > 10 | > 10
CN[C@@H](C)C(=O)N[C@H](C(=O)N1CCC[C@H]1C(=O)Nc1ccc2ncnc(Nc3ccc(F)c(Cl)c3F)c2c1)C(C)(C)C [Example 48, (S)—N-(4-(3-chloro-2,4-difluorophenylamino)quinazolin-6-yl)-1-((S)-3,3-dimethyl-2-((S)-2-(methylamino)propanamido)butanoyl)pyrrolidine-2-carboxamide] | ≤ 0.1 | > 10 | > 10
CN[C@@H](C)C(=O)N[C@H](C(=O)N1CCC[C@H]1C(=O)Nc1cc2c(Nc3ccc(F)c(Cl)c3F)ncnc2cc1O[C@H]1CCOC1)C(C)(C)C [Example 14, (S)—N-(4-(3-chloro-2,4-difluorophenylamino)-7-((S)-tetrahydrofuran-3-yloxy)quinazolin-6-yl)-1-((S)-3,3-dimethyl-2-((S)-2-(methylamino)propanamido)butanoyl)pyrrolidine-2-carboxamide hydrochloride] | ≤ 0.1 | > 10 | > 10
C=CC(=O)N[C@@H](C)C(=O)N[C@H](C(=O)N1CCC[C@H]1C(=O)Nc1cc2c(Nc3ccc(F)c(Cl)c3F)ncnc2cc1OC)C(C)(C)C [Example 13, (S)-1-((S)-2-((S)-2-acrylamidopropanamido)-3,3-dimethylbutanoyl)-N-(4-(3-chloro-2,4-difluorophenylamino)-7-methoxyquinazolin-6-yl)pyrrolidine-2-carboxamide hydrochloride] | ≥ 1 | > 10 | > 10
CN[C@@H](C)C(=O)N[C@H](C(=O)N1CCC[C@H]1C(=O)Nc1cc2c(Nc3ccc(OC)cc3)ncnc2cc1OC)C(C)(C)C [Example 49, (S)-1-((S)-3,3-dimethyl-2-((S)-2-(methylamino)propanamido)butanoyl)-N-(7-methoxy-4-(4-methoxyphenylamino)quinazolin-6-yl)pyrrolidine-2-carboxamide hydrochloride] | ≤ 0.1 | > 10 | > 10
